In one assay the target is ALK1 (Homo sapiens, UniProt P37023). In words: TR-FRET enzymatic ALK kinase assay, ALK1. Background: TR-FRET usually uses a lanthanide donor and a delayed reading to cut background.
A further assay addresses ALK6 (Homo sapiens, UniProt O00238). In words: TR-FRET enzymatic ALK kinase assay, ALK6.
A further assay addresses T1, ALK4 (Homo sapiens, UniProt P36896).
T1 sequence (P36896 24-505): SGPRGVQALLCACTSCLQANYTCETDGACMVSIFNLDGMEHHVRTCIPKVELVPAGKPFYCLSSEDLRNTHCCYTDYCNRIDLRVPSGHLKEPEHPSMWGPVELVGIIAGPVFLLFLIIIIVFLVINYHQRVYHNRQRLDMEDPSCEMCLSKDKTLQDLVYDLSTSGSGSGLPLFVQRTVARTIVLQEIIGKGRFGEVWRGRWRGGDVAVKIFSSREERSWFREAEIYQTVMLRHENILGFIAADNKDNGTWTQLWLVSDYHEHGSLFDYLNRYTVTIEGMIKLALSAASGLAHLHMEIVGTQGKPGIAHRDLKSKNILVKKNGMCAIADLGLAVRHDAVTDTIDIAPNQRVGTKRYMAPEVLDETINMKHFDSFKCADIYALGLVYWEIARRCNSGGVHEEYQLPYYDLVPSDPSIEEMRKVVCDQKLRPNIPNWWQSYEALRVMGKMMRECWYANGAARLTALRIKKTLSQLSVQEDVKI
In words: TR-FRET enzymatic ALK kinase assay, ALK4.

The target of another assay is T2, ALK5 (Homo sapiens, UniProt P36897).
T2 sequence (P36897 34-503): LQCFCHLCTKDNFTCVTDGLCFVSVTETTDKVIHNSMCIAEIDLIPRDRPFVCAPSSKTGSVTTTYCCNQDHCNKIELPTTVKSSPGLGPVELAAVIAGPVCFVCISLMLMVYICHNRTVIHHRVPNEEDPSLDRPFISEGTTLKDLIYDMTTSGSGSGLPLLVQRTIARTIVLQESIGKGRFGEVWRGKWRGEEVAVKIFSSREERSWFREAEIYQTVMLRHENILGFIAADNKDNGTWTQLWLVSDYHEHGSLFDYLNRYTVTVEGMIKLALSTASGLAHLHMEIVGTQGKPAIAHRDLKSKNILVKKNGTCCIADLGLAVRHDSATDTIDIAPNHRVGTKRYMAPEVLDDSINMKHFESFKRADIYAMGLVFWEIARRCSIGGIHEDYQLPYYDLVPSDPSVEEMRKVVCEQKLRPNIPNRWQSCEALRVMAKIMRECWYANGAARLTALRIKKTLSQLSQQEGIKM
In words: TR-FRET enzymatic ALK kinase assay, ALK5.

For assay [1], the target named is T3, ALK2 (Mus musculus, UniProt P37172).
T3 construct: The C2C12 cell line was selected for the measurement of ALK2 activity using BMP6 as the agonist; host or cells: C2C12
T3 sequence (P37172 21-509): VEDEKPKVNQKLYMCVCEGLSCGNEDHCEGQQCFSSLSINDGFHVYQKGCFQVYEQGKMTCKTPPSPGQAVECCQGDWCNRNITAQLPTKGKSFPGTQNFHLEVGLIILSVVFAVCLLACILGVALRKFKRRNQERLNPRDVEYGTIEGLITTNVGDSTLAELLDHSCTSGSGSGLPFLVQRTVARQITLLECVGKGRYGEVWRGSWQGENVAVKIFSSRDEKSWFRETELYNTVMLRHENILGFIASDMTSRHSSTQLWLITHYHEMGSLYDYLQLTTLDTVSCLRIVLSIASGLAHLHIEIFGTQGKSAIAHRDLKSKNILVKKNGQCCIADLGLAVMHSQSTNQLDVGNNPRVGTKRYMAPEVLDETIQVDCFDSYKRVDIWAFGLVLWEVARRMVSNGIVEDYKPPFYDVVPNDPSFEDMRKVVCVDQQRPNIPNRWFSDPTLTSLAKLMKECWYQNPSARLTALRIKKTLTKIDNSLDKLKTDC
In words: HTRF pSMAD1 cell-based ALK2 assay (C2C12 cells, BMP6 as agonist). Put shortly: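 Cells pre-starved, plated in 0.1% FBS medium for 4 h, compound added for 30 min, then stimulated 30 min with BMP9 (BAOEC) or BMP6 (C2C12). Phospho-SMAD1 measured by HTRF after overnight room-temperature detection incubation.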

Assay [2] addresses T4, ALK2 (Homo sapiens, UniProt Q04771).
T4 sequence (Q04771 21-509): T3 sequence (P37172 21-509) with V1M, Q10P, I121L, E162D, S310P
In words: TR-FRET enzymatic ALK kinase assay, ALK2.
Method: (§1) Briefly, the ALKs enzymatic assay was initiated by dispense 2.5 μl enzyme in 1× kinase reaction buffer. The assay plate was then added with compounds followed by incubation at room temperature for 10 minutes. Then 2.5 μl/well substrate was added.

Another assay deals with ALK3 (Homo sapiens, UniProt P36894). In words: TR-FRET enzymatic ALK kinase assay, ALK3.
Where [3] appears, read: cell-based assay, BMP6, read-out: Cell IC50 BMP6.
[4] abbreviates: HTRF assay, BMP6 as agonist, C2C12 cells, read-out: BMP6 HTRF.

Numbering of substitutions follows the chain as printed. Read-outs that look alike come from different tables or passages of the source.

Sequence of ALK1 (P37023 22-503): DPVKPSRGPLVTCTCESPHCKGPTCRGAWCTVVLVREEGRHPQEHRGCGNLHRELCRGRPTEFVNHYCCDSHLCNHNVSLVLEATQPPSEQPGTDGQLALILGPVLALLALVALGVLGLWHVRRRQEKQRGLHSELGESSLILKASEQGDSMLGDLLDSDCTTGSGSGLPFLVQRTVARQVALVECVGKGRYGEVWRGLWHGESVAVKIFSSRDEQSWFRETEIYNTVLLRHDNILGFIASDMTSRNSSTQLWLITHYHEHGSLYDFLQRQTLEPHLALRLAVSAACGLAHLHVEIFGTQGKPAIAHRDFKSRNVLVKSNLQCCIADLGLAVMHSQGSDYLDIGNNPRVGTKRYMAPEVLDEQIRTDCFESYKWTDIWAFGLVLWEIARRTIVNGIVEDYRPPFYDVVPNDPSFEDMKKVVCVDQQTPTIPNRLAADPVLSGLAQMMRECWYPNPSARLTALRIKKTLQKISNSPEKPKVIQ
Sequence of ALK3 (P36894 24-532): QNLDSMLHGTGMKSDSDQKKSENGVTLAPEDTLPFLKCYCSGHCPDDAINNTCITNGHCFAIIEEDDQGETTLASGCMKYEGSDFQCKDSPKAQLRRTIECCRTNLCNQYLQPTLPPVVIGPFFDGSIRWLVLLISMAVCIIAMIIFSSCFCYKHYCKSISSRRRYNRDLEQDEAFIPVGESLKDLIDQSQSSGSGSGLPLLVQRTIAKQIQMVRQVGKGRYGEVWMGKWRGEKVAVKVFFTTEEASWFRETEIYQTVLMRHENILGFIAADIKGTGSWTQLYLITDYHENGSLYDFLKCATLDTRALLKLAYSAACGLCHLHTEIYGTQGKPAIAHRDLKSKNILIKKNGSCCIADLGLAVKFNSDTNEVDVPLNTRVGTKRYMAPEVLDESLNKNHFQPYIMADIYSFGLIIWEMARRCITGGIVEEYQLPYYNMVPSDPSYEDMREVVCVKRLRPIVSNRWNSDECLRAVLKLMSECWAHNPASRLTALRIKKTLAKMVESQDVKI
Sequence of ALK6 (O00238 14-502): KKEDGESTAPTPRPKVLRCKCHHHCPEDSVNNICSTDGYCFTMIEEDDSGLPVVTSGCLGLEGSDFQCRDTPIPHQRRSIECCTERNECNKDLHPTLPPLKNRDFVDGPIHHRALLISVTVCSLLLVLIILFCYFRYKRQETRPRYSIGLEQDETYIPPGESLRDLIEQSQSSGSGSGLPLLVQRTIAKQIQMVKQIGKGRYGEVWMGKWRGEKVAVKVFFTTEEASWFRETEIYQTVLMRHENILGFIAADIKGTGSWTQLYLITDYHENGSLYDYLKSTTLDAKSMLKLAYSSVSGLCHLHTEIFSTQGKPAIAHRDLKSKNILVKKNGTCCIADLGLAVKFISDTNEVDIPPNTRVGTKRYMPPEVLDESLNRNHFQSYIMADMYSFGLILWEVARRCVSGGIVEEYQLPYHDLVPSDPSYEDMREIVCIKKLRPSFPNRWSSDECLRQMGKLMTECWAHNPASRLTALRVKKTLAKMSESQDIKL
Method for ALK1: as §1
Method for ALK3: as §1
Method for ALK4: as §1
Method for ALK5: Six ALK kinase enzyme assays were developed for determination of compound activities on ALK1, ALK2, ALK3, ALK4, ALK5 and ALK6.
as §1
Method for ALK6: as §1

Regarding `Cc1ccc(S(C)(=O)=O)cc1-c1cnn2cc(-c3ccc(N4[C@H](C)CNC[C@@H]4C)cc3)cnc12` [Compound 116, 6-(4-((2R,6S)-2,6-dimethylpiperazin-1-yl)phenyl)-3-(2-methyl-5-(methylsulfonyl)phenyl)pyrazolo[1,5-a]pyrimidine], the IC50 against ALK1 is above 10000 nM; at ALK6, above 10000 nM; on ALK4 it was above 10000 nM; on ALK5, above 10000 nM; at ALK2 [1] (setting [3]), 319 nM; on ALK2 [2], 2200 nM. The IC50 against ALK3 is above 10000 nM.

Take `CS(=O)(=O)c1cccc(-c2cnn3cc(-c4ccc(C(F)(F)CN5CCCC5)cc4)cnc23)c1` [Compound 119, 6-(4-(1,1-difluoro-2-(pyrrolidin-1-yl)ethyl)phenyl)-3-(3-(methylsulfonyl)phenyl)pyrazolo[1,5-a]pyrimidine]: the IC50 on ALK1 was 530 nM; against ALK6, above 10000 nM; at ALK4, above 10000 nM; against ALK5 it was above 10000 nM; at ALK2 [1] (setting [3]), 1040 nM; at ALK2 [2], 210 nM. The compound further yielded an IC50 against ALK3 above 10000 nM.

As to `CS(=O)(=O)c1cccc(-c2cnn3cc(-c4ccc(C(F)(F)CN5CCCCC5)cc4)cnc23)c1` [Compound 120, 6-(4-(1,1-difluoro-2-(piperidin-1-yl)ethyl)phenyl)-3-(3-(methylsulfonyl)phenyl)pyrazolo[1,5-a]pyrimidine], the IC50 at ALK1 is above 10000 nM; at ALK6, above 10000 nM; on ALK4 it was above 10000 nM; against ALK5, above 10000 nM; on ALK2 [1] (setting [3]) it was 3600 nM; against ALK2 [2], above 10000 nM. Besides, the IC50 at ALK3 was above 10000 nM.

With `CS(=O)(=O)c1cccc(-c2cnn3cc(-c4ccc(C(F)(F)CN5CCOCC5)cc4)cnc23)c1` [Compound 121, 4-(2,2-difluoro-2-(4-(3-(3-(methylsulfonyl)phenyl)pyrazolo[1,5-a]pyrimidin-6-yl)phenyl)ethyl)morpholine], the IC50 was 690 nM on ALK1; above 10000 nM against ALK6; above 10000 nM against ALK4; above 10000 nM against ALK5; 836 nM on ALK2 [1] (setting [3]); 350 nM against ALK2 [2]. Also, the IC50 at ALK3 was above 10000 nM.

As for `CS(=O)(=O)c1cccc(-c2cnn3cc(-c4ccc(C(F)(F)CN5CCNCC5)cc4)cnc23)c1` [Compound 122, 6-(4-(1,1-difluoro-2-(piperazin-1-yl)ethyl)phenyl)-3-(3-(methylsulfonyl)phenyl)pyrazolo[1,5-a]pyrimidine], the IC50 against ALK1 was 370 nM; against ALK6 it was above 10000 nM; against ALK4 it was above 10000 nM; against ALK5, above 10000 nM; on ALK2 [1] (setting [3]), 2 nM; against ALK2 [2], 250 nM. At ALK3, this compound returned an IC50 above 10000 nM.

`CC(O)c1cccc(-c2cnn3cc(-c4ccc(CN5CCCCC5)cc4)cnc23)c1` (centres unmarked) [Compound 124, 1-(3-(6-(4-(piperidin-1-ylmethyl)phenyl)pyrazolo[1,5-a]pyrimidin-3-yl)phenyl)ethanol]: the IC50 on ALK1 is 440 nM; against ALK6, above 10000 nM; on ALK4 it was above 10000 nM; at ALK5 it was above 10000 nM; on ALK2 [1] (setting [3]), 5.38 nM; on ALK2 [2], 100 nM. For the same compound, the IC50 on ALK3 was above 10000 nM.

`O=[S+]([O-])(c1cccc(-c2cnn3cc(-c4ccc(CN5CCCCC5)cc4)cnc23)c1)C1CC1` [Compound 125, 3-(3-(cyclopropylsulfonyl)phenyl)-6-(4-(piperidin-1-ylmethyl)phenyl)pyrazolo[1,5-a]pyrimidine]: the IC50 against ALK1 was 430 nM; on ALK6 it was 8400 nM; at ALK4, above 10000 nM; against ALK5, above 10000 nM; on ALK2 [1] (setting [3]), below 1 nM; against ALK2 [2], 66 nM. The compound further registered an IC50 against ALK3 above 10000 nM.

Consider `CS(=O)(=O)c1cccc(-c2cnn3cc(-c4ccc(OC5(CN6CCCCC6)CC5)cc4)cnc23)c1` [Compound 134, 3-(3-(methylsulfonyl)phenyl)-6-(4-(1-(piperidin-1-ylmethyl)cyclopropoxy)phenyl)pyrazolo[1,5-a]pyrimidine], for which the IC50 was 270 nM against ALK1; above 10000 nM on ALK6; above 10000 nM against ALK4; above 10000 nM against ALK5; 270 nM at ALK2 [1] (setting [4]); 45 nM against ALK2 [2]. Further, the IC50 at ALK3 is 1400 nM.

As to `CC(O)c1cccc(-c2cnn3cc(-c4ccc(C5(C)CCNCC5)cc4)cnc23)c1` (centres unmarked) [Compound 136, 1-(3-(6-(4-(4-methylpiperidin-4-yl)phenyl)pyrazolo[1,5-a]pyrimidin-3-yl)phenyl)ethanol], the IC50 is 220 nM at ALK1; above 10000 nM against ALK6; above 10000 nM against ALK4; above 10000 nM on ALK5; 380 nM on ALK2 [1] (setting [4]); 57 nM at ALK2 [2]. Besides, on ALK3, the IC50 was 2900 nM.

In the case of `C[C@@H](O)c1cccc(-c2cnn3cc(-c4ccc(OC5(CN6CCCCC6)CC5)cc4)cnc23)c1` [Compound 152, (R)-1-(3-(6-(4-(1-(piperidin-1-ylmethyl)cyclopropoxy)phenyl)pyrazolo[1,5-a]pyrimidin-3-yl)phenyl)ethanol], the IC50 against ALK1 is 590 nM; at ALK6, 5600 nM; on ALK4, above 10000 nM; against ALK5, above 10000 nM; at ALK2 [1] (setting [4]) it was 450 nM; against ALK2 [2] it was 54 nM. Further, at ALK3, the IC50 came to 1300 nM.

As for `CS(=O)(=O)c1cccc(-c2cnn3cc(-c4ccc(CN5CCCC5)cc4)cnc23)c1` [Compound 164, 3-(3-(methylsulfonyl)phenyl)-6-(4-(pyrrolidin-1-ylmethyl)phenyl)pyrazolo[1,5-a]pyrimidine], the IC50 is 33 nM on ALK1; 9800 nM at ALK6; 4400 nM against ALK4; 8200 nM at ALK5; 180 nM on ALK2 [1] (setting [4]); 3 nM on ALK2 [2]. Moreover, the IC50 against ALK3 came out at 390 nM.

The values above are taken from patent US10513521B2, “Compositions and methods for inhibiting BMP” (The Brigham and Women's Hospital, Inc., priority 2014, dated 2019).
